Reference: ChEMBL document CHEMBL4418488, “Compounds and methods of treating ocular disorders” (2017)
The source made the active and inactive calls. No cut-off for these calls is given here.

Key:
[1] = Toxicity in 4 weeks old Abca4(-/-)/Rdh8 (-/-) mouse model of intense light-induced retinal degeneration at 1 mg dosed via gavage under dark for 24 hrs before exposure to 10000 lux bright light for 1 hr by SDOCT and ERG analysis; format: organism-based; conditions: in vivo, po
[2] = tested on: Mus musculus; experiment: Protective effect against intense light-induced retinal degeneration in 4 weeks old Abca4(-/-)/Rdh8 (-/-) mouse assessed as effect on thickness of outer nuclear layer at 1 mg dosed via gavage under dark for 24 hrs before exposure to 10000 lux bright light for 1 hr by SDOCT and ERG analysis; format: functional, organism-based
[3] = tested on: Mus musculus; experiment: Protective effect against intense light-induced retinal degeneration in 4 weeks old Abca4(-/-)/Rdh8 (-/-) mouse at 0.2 mg dosed via gavage under dark for 24 hrs before exposure to 10000 lux bright light for 1 hr followed by exposure to dark for 3 days by ERG analysis; format: functional, organism-based
[4] = tested on: Mus musculus; experiment: Protective effect against intense light-induced retinal degeneration in wild type mouse assessed as rate of visual chromophore recovery by measuring 11-cis- retinal level in eye at 0.2 mg pretreated with compound followed by exposure to light illumination 7 days after compound dosing (reference value: 85 +/- 5%) by HPLC analysis; format: functional, organism-based
[5] = tested on: Mus musculus; experiment: Protective effect against intense light-induced retinal degeneration in 4 weeks old Abca4(-/-)/Rdh8 (-/-) mouse at 0.1 mg dosed via gavage under dark for 24 hrs before exposure to 10000 lux bright light for 1 hr followed by exposure to dark for 3 days by ERG analysis; format: functional, organism-based
[6] = tested on: Mus musculus; experiment: Protective effect against intense light-induced retinal degeneration in 4 weeks old Abca4(-/-)/Rdh8 (-/-) mouse at 0.1 mg dosed via gavage under dark for 24 hrs before exposure to 10000 lux bright light for 1 hr followed by exposure to dark for 3 days by OCT analysis; format: functional, organism-based
[7] = tested on: Mus musculus; experiment: Protective effect against intense light-induced retinal degeneration in 4 weeks old Abca4(-/-)/Rdh8 (-/-) mouse at 0.5 mg dosed via gavage under dark for 24 hrs before exposure to 10000 lux bright light for 1 hr followed by exposure to dark for 3 days by ERG analysis; format: functional, organism-based
[8] = tested on: Mus musculus; experiment: Protective effect against intense light-induced retinal degeneration in 4 weeks old Abca4(-/-)/Rdh8 (-/-) mouse assessed as inhibition of rate of visual chromophore recovery by measuring 11-cis- retinal level in eye at 0.1 mg dosed via gavage under dark for 24 hrs before exposure to 10000 lux bright light for 1 hr by HPLC analysis relative to control; format: functional
[9] = Drug metabolism in 4 weeks old Abca4(-/-)/Rdh8 (-/-) mouse model of intense light-induced retinal degeneration assessed as accumulation of intense amide peaks in liver at 1 mg dosed via gavage under dark for 24 hrs before exposure to 10000 lux bright light for 1 hr […]; format: ADME, organism-based; conditions: in vivo, po
[10] = tested on: Mus musculus; experiment: Protective effect against intense light-induced retinal degeneration in 4 weeks old Abca4(-/-)/Rdh8 (-/-) mouse assessed as 11-cis retinal levels at 1 mg dosed via gavage under dark for 24 hrs before exposure to 10000 lux bright light for 1 hr by HPLC analysis; format: functional

Row | SMILES | Activity [1] | Activity [2] | further results
1 | CC(C)(C)C(=C\C=C\CN)/C=C/C1=CCCCC1 | Toxic | inactive | 
2 | COc1ccc(C(=C\C=C\C(C)=C\CN)/C=C/c2ccc(O)cc2)cc1 | Non-Toxic | inactive | 
3 | CC(/C=C/C=C(/C=C/c1ccc(C(F)(F)F)cc1)c1ccccc1)=C\CN | Toxic | inactive | 
4 | CC1=C(/C=C/C(C)=C/C=C/C(C)=C/CN)C(C)(C)CCC1 | Non-Toxic | Active | Activity [3]: Active; Activity [4]: inactive; Activity [5]: inactive; Activity [6]: inactive; Activity [7]: Active; inhibition (INH) [8]: 40%
5 | CC(/C=C/C=C(/C=C/c1ccccc1)C(C)(C)C)=C\CN | Toxic | Active | Drug metabolism [9]: Metabolite_Detected
6 | CC1=C(/C=C/C=C/C=C/C=C/CN)C(C)(C)CCC1 | Non-Toxic | Active | 
7 | CC(/C=C/C=C(/c1ccc2ccccc2c1)C(C)(C)C)=C\CN | Toxic | Active | Drug metabolism [9]: Metabolite_Detected; Activity [10]: 50%
8 | CC1=C(/C=C/C(=C/C=C/C(C)=C/CN)C(C)(C)C)CCCC1 | Non-Toxic | inactive | 
9 | CC(/C=C/C=C(/C=C/C1=CCCCC1)C(C)(C)C)=C\CN | Toxic | Active | Drug metabolism [9]: Metabolite_Detected; Activity [10]: 50%
10 | CC(/C=C/C1=CCCCC1)=C\C=C\C(C)=C\CN | Non-Toxic | inactive | 
11 | CC1=C(/C=C/C(=C/C=C/C(C)=C/CN)C(C)(C)C)C(C)(C)CCC1 | Non-Toxic | inactive | 
12 | COc1ccc(C(=C\C=C\C(C)=C\CN)/C=C/C2=CCCCC2)cc1 | Non-Toxic | inactive | 
